Data as given in patent publication US5488060A, “Substituted thiadiazoles, compositions containing them and their use as antimicrobial and marine antifouling agents” (The Dow Chemical Company, priority 1994, dated 1996).
Values after ≈ are worked out from the molar mass of the structure shown. Where two headings read alike, the source gives them in different places.

Key:
Type in all cases: cell-based
[1] = system: Fusarium oxysporum (Fo); assay: Minimum inhibitory concentration (MIC) in malt yeast agar, Fusarium oxysporum
Experimental: (§1) The antimicrobial activity of the compounds of the present invention is set forth as the minimum inhibitory concentration (MIC) for the active compounds and is determined for nine (9) bacteria, using nutrient agar, and seven (7) yeast and fungi, using malt yeast agar. This determination is conducted using a one percent solution of the test compound prepared in a mixture of acetone and water.
(§2) Malt yeast agar is prepared at pH 5.5 by adding 3 g yeast extract and 45 g malt agar per liter of deionized water. The specific agar is dispensed in 30 mL aliquots into 25×200 mm test tubes, capped and autoclaved for 15 minutes at 115° C.
(§3) The test tubes containing the agar are cooled in a water bath until the temperature of the agar is 48° C. Then, an appropriate amount of the one percent solution of the test compound is added (except in the controls where no compound is added) to the respective test tubes so that the final concentrations are 500, […], 100, 50, 25, 10, 5, 2.5, 1.0 and zero parts per million of the test compound in the agar, thus having a known concentration of test compound dispersed therein. The contents of the test tubes are then transferred to respective petri plates. After drying for 24 hours, the petri plates containing nutrient agar are inoculated with bacteria and those containing malt yeast agar are inoculated with yeast and fungi.
(§4) The inoculation with the yeast and fungi is accomplished as follows. Cultures of yeast and fungi are incubated for seven days on malt yeast agar at 30° C. These cultures are used to prepare suspensions by the following procedure. A suspension of each organism is prepared by adding 10 mL of sterile saline and 10 microliters of octylphenoxy polyethoxy ethanol to the agar slant of yeast or fungi. The sterile saline/octylphenoxy potyethoxy ethanol solution is then agitated with a sterile swab to suspend the microorganism grown on the slant. Each resulting suspension is diluted into sterile saline (1 part suspension: 9 parts sterile saline). Aliquots of these dilutions are placed in individual wells of Steer's Replicator and petri plates inoculated as previously described. The petri plates are incubated at 30° C. and read after 48 hours for yeast and 72 hours for fungi.

[2] = system: Salmonella choleraesuis (Se); assay: Minimum inhibitory concentration (MIC) in nutrient agar, Salmonella choleraesuis; conditions: Salmonella enterica
Experimental: as §1
(§5) Nutrient agar is prepared at pH 6.8, representing a neutral medium, and at pH 8.2, representing an alkaline medium. The nutrient agars are prepared by adding 23 g of nutrient agar to one-liter of deionized water. In addition, the alkaline medium is prepared by adjusting a 0.04M solution of N-[tris-(hydroxymethyl)methyl]glycine buffered deionized water with concentrated sodium hydroxide to a pH of 8.5.
as §3
(§6) The inoculation with bacteria is accomplished by using the following procedure. Twenty-four hour-cultures of each of the bacteria are prepared by incubating the respective bacteria in tubes containing nutrient broth for 24 hours at 30° C. in a shaker. Dilutions of each of the 24 hour-cultures are made so that nine separate suspensions (one for each of the nine test bacteria) are made, each containing 10^8 colony forming units (CFU) per mL of suspension of a particular bacteria. Aliquots of 0.3 mL of each of the bacterial suspensions are used to fill the individual wells of Steer's Replicator. For each microbial suspension, 0.3 mL was used to fill three wells (i.e., three wells of 0.3 mL each) so that for the nine different bacteria, 27 wells are filled. The Steer's Replicator is then used to inoculate both the neutral and alkaline pH nutrient agar petri plates.
(§7) The inoculated petri plates are incubated at 30° C. for 48 hours and then read to determine if the test compound which is incorporated into the agar prevented growth of the respective bacteria.

[3] = system: Candida albicans (Ca); assay: Minimum inhibitory concentration (MIC) in malt yeast agar, Candida albicans
Experimental: as §1, §2, §3, §4

[4] = system: Aspergillus niger (An); assay: Minimum inhibitory concentration (MIC) in malt yeast agar, Aspergillus niger; conditions: pH 5.5; malt yeast agar, 30° C., 72 hours for fungi; read-out: Minimum Inhibitory Concentration, An
Experimental: as §1, §2, §3, §4

[5] = system: Klebsiella pneumoniae (Kp); assay: Minimum inhibitory concentration (MIC) in nutrient agar, Klebsiella pneumoniae
Experimental: as §1, §5, §3, §6, §7

[6] = system: Saccharomyces cerevisiae (Sc); assay: Minimum inhibitory concentration (MIC) in malt yeast agar, Saccharomyces cerevisiae
Experimental: as §1, §2, §3, §4

[7] = system: Escherichia coli (Ec); assay: Minimum inhibitory concentration (MIC) in nutrient agar, Escherichia coli
Experimental: as §1, §5, §3, §6, §7

[8] = system: Aureobasidium pullulan (Ap); assay: Minimum inhibitory concentration (MIC) in malt yeast agar, Aureobasidium pullulan; conditions: pH 5.5, read-out: Minimum Inhibitory Concentration, Ap
Experimental: as §1, §2, §3, §4

[9] = system: Trichoderma viride (Tv); assay: Minimum inhibitory concentration (MIC) in malt yeast agar, Trichoderma viride; conditions: pH 5.5; malt yeast agar, 30° C., 72 hours for fungi; read-out: Minimum Inhibitory Concentration, Tv
Experimental: as §1, §2, §3, §4

[10] = system: Pseudomonas aeruginosa (Pa); assay: Minimum inhibitory concentration (MIC) in nutrient agar, Pseudomonas aeruginosa
Experimental: as §1, §5, §3, §6, §7

[11] = system: Pseudomonas aeruginosa (PRD-10); assay: Minimum inhibitory concentration (MIC) in nutrient agar, Pseudomonas aeruginosa PRD-10; conditions: 48 h
Experimental: as §1, §5, §3, §6, §7

[12] = system: Staphylococcus aureus (Sa); assay: Minimum inhibitory concentration (MIC) in nutrient agar, Staphylococcus aureus
Experimental: as §1, §5, §3, §6, §7

[13] = system: Proteus vulgaris (Pv); assay: Minimum inhibitory concentration (MIC) in nutrient agar, Proteus vulgaris
Experimental: as §1, §5, §3, §6, §7

[14] = system: Bacillus subtilis (Bs); assay: Minimum inhibitory concentration (MIC) in nutrient agar, Bacillus subtilis
Experimental: as §1, §5, §3, §6, §7

[15] = system: Enterobacter aerogenes (Ea); assay: Minimum inhibitory concentration (MIC) in nutrient agar, Enterobacter aerogenes; conditions: Klebsiella aerogenes
Experimental: as §1, §5, §3, §6, §7

[16] = system: Penicillium chrysogenum (Pc); assay: Minimum inhibitory concentration (MIC) in malt yeast agar, Penicillium chrysogenum; conditions: 72 h, pH 5.5, read-out: Minimum Inhibitory Concentration, PC
Experimental: as §1, §2, §3, §4

[17] = pH 5.5, malt yeast agar, 30° C., 72 hours for fungi, read-out: Minimum Inhibitory Concentration, Fo
[18] = 48 h, pH 8.2, read-out: Minimum Inhibitory Concentration, SC
[19] = pH 6.8, nutrient agar, 30° C., 48 hours, read-out: Minimum Inhibitory Concentration, SC
[20] = pH 5.5, malt yeast agar, 30° C., 48 hours for yeast, read-out: Minimum Inhibitory Concentration, Ca
[21] = 48 h, pH 8.2, read-out: Minimum Inhibitory Concentration, Kp
[22] = 48 h, pH 6.8, read-out: Minimum Inhibitory Concentration, Ec
[23] = 48 h, pH 8.2, read-out: Minimum Inhibitory Concentration, Ec
[24] = pH 6.8, nutrient agar, 30° C., 48 hours, read-out: Minimum Inhibitory Concentration, Pa
[25] = pH 8.2, nutrient agar, 30° C., 48 hours, read-out: Minimum Inhibitory Concentration, Pa
[26] = pH 6.8, read-out: Minimum Inhibitory Concentration, PRD
[27] = pH 8.2, read-out: Minimum Inhibitory Concentration, PRD
[28] = pH 6.8, nutrient agar, 30° C., 48 hours, read-out: Minimum Inhibitory Concentration, Sa
[29] = 48 h, pH 6.8, read-out: Minimum Inhibitory Concentration, Pv
[30] = 48 h, pH 8.2, read-out: Minimum Inhibitory Concentration, Pv
[31] = pH 6.8, nutrient agar, 30° C., 48 hours, read-out: Minimum Inhibitory Concentration, Bs
[32] = pH 8.2, nutrient agar, 30° C., 48 hours, read-out: Minimum Inhibitory Concentration, Bs
[33] = 48 h, pH 6.8, read-out: Minimum Inhibitory Concentration, Ea
[34] = 48 h, pH 8.2, read-out: Minimum Inhibitory Concentration, Ea
[35] = 48 h, pH 6.8, read-out: Minimum Inhibitory Concentration, SC
[36] = pH 6.8, nutrient agar, 30° C., 48 hours, read-out: Minimum Inhibitory Concentration, Kp
[37] = pH 5.5, malt yeast agar, 30° C., 48 hours for yeast, read-out: Minimum Inhibitory Concentration, SC
[38] = 48 h, pH 6.8, read-out: Minimum Inhibitory Concentration, Sa
[39] = 48 h, pH 8.2, read-out: Minimum Inhibitory Concentration, Sa
[40] = 48 h, pH 8.2, read-out: Minimum Inhibitory Concentration, Bs

| SMILES | MIC [1, 17] [µg/mL] | MIC [2, 18] [µg/mL] | MIC [3, 20] [µg/mL] | MIC [4] [µg/mL] | MIC [5, 21] [µg/mL] | MIC [7, 22] [µg/mL] | MIC [7, 23] [µg/mL] | MIC [8] [µg/mL] | MIC [9] [µg/mL] | MIC [10, 24] [µg/mL] | MIC [10, 25] [µg/mL] | MIC [11, 26] [µg/mL] | MIC [11, 27] [µg/mL] | MIC [13, 29] [µg/mL] | MIC [13, 30] [µg/mL] | MIC [14, 31] [µg/mL] | MIC [15, 33] [µg/mL] | MIC [15, 34] [µg/mL] | MIC [5, 36] [µg/mL] | MIC [6, 37] [µg/mL] | further results |
| --- | --- | --- | --- | --- | --- | --- | --- | --- | --- | --- | --- | --- | --- | --- | --- | --- | --- | --- | --- | --- | --- |
| N#CSc1nsnc1-c1cccc(Cl)c1 [Example III, 4-(3-Chlorophenyl)-3-thiocyanato-l,2,5-thiadiazole] | 2.5 (≈ 9.85 µM) | 500 (≈ 1970 µM) | 5 (≈ 19.7 µM) | 5 (≈ 19.7 µM) | 500 (≈ 1970 µM) | 50 (≈ 197 µM) | 500 (≈ 1970 µM) | 2.5 (≈ 9.85 µM) | 2.5 (≈ 9.85 µM) | > 500 | 500 (≈ 1970 µM) | > 500 | 500 (≈ 1970 µM) | > 500 | 500 (≈ 1970 µM) | 25 (≈ 98.5 µM) | > 500 | > 500 |  |  | MIC [2, 19]: 50 µg/mL (≈ 197 µM); MIC ([5]; 48 h, pH 6.8, read-out: Minimum Inhibitory Concentration, Kp): 50 µg/mL (≈ 197 µM); MIC ([6]; 48 h, pH 5.5, read-out: Minimum Inhibitory Concentration, SC): 2.5 µg/mL (≈ 9.85 µM); MIC [12, 28]: 25 µg/mL (≈ 98.5 µM); MIC ([12]; pH 8.2, nutrient agar, 30° C., 48 hours, read-out: Minimum Inhibitory Concentration, Sa): 250 µg/mL (≈ 985 µM); MIC [14, 32]: 100 µg/mL (≈ 394 µM) |
| N#CSc1nsnc1-c1ccc(Br)cc1 [Example VI, 4-(4-Bromophenyl)-3-thiocyanato-1,2,5-thiadiazole] |  | 500 (≈ 1680 µM) | 5 (≈ 16.8 µM) | 5 (≈ 16.8 µM) | 500 (≈ 1680 µM) | 500 (≈ 1680 µM) | 500 (≈ 1680 µM) | 2.5 (≈ 8.38 µM) | < 1 | 500 (≈ 1680 µM) | 500 (≈ 1680 µM) | 500 (≈ 1680 µM) | 500 (≈ 1680 µM) | 500 (≈ 1680 µM) | 500 (≈ 1680 µM) | 25 (≈ 83.8 µM) | 500 (≈ 1680 µM) | 500 (≈ 1680 µM) | 500 (≈ 1680 µM) | 5 (≈ 16.8 µM) | MIC [2, 35]: 500 µg/mL (≈ 1680 µM); MIC [16]: 10 µg/mL (≈ 33.5 µM); MIC [12, 38]: 50 µg/mL (≈ 168 µM); MIC [12, 39]: 500 µg/mL (≈ 1680 µM); MIC [14, 40]: 500 µg/mL (≈ 1680 µM) |
| N#CSc1nsnc1-c1cccnc1 [Example XV, 4-(3-Pyridyl)-3-thiocyanato-1,2,5-thiadiazole] |  | 500 (≈ 2270 µM) |  | 100 (≈ 454 µM) | 500 (≈ 2270 µM) |  | 500 (≈ 2270 µM) | 50 (≈ 227 µM) |  | 500 (≈ 2270 µM) |  | 500 (≈ 2270 µM) | 500 (≈ 2270 µM) |  | 500 (≈ 2270 µM) | 25 (≈ 113 µM) |  | 500 (≈ 2270 µM) | 100 (≈ 454 µM) | 50 (≈ 227 µM) | MIC ([1]; 72 h, pH 5.5, read-out: Minimum Inhibitory Concentration, Fo): 50 µg/mL (≈ 227 µM); MIC [2, 19]: 250 µg/mL (≈ 1130 µM); MIC ([3]; 48 h, pH 5.5, read-out: Minimum Inhibitory Concentration, Ca): 100 µg/mL (≈ 454 µM); MIC ([7]; pH 6.8, nutrient agar, 30° C., 48 hours, read-out: Minimum Inhibitory Concentration, Ec): 250 µg/mL (≈ 1130 µM); MIC ([10]; 48 h, pH 8.2, read-out: Minimum Inhibitory Concentration, Pa): 500 µg/mL (≈ 2270 µM); MIC [12, 38]: 50 µg/mL (≈ 227 µM); MIC ([13]; pH 6.8, nutrient agar, 30° C., 48 hours, read-out: Minimum Inhibitory Concentration, Pv): 100 µg/mL (≈ 454 µM); MIC [14, 32]: 100 µg/mL (≈ 454 µM); MIC ([15]; pH 6.8, nutrient agar, 30° C., 48 hours, read-out: Minimum Inhibitory Concentration, Ea): 250 µg/mL (≈ 1130 µM) |
| COC(=O)c1ccc(-c2nsnc2SCSC#N)cc1 [Example XXVIII] | 250 (≈ 773 µM) | > 500 | 500 (≈ 1550 µM) | 100 (≈ 309 µM) | > 500 | 500 (≈ 1550 µM) | 500 (≈ 1550 µM) | 50 (≈ 155 µM) | > 500 | 500 (≈ 1550 µM) | > 500 | 500 (≈ 1550 µM) | > 500 | 500 (≈ 1550 µM) | > 500 |  | 500 (≈ 1550 µM) | > 500 | 500 (≈ 1550 µM) | 250 (≈ 773 µM) | MIC [2, 35]: 500 µg/mL (≈ 1550 µM); MIC [12, 39]: 500 µg/mL (≈ 1550 µM); MIC [12, 28]: 500 µg/mL (≈ 1550 µM); MIC ([14]; 48 h, pH 6.8, read-out: Minimum Inhibitory Concentration, Bs): 500 µg/mL (≈ 1550 µM); MIC [14, 40]: 500 µg/mL (≈ 1550 µM) |
